Measured values reported in ChEMBL document CHEMBL3507680, “University of Dundee, Gates Library screen for HepG2 cell viability”.

Assay: Human HepG2 cell viability assay in 384 well format
Format: toxicity, cell-based
Set-up: dose 125 nL, time 70.5 hour; concentration not given beside the values
Conditions: HepG2 cells, read-out: Inhibition

Row | SMILES | cytotoxicity at 70.5 h
1 | O=c1c2ccccc2nc2n1C(CSc1ccc(F)cc1)CN2 (stereo unspecified) | 28.4%
2 | CCN(CC)S(=O)(=O)c1cc(Br)ccc1OC | -7.07%
3 | Cc1ccc(SCC2CNc3nc4ccccc4c(=O)n32)c(C)c1 (stereo unspecified) | 20%
4 | CCOC(=O)Cn1ccc(O)c(Cc2ccc(Cl)cc2Cl)c1=O | 0.692%
5 | O=c1c(Cc2ccccc2)c(O)ccn1Cc1ccco1 | 0.508%
6 | CC(C)CC(=O)Nc1ccccc1Oc1ccsc1C(=O)O | -2.03%
7 | O=c1c(Cc2ccc(Cl)cc2Cl)c(O)ccn1CC1CC1 | -5.97%
8 | CC(C)(C)C(=O)Nc1ccc(Oc2ccsc2C(=O)O)cc1 | 1.54%
9 | O=C(O)c1sccc1Oc1ccc(NC(=O)C2CC2)cc1 | -0.448%
10 | CC(C)(C)OC(=O)N1CCN(c2nnc(Br)s2)CC1 | 18.7%
11 | CC(C)(C)OC(=O)N1CCCN(c2nnc(Br)s2)CC1 | -4.55%
12 | CN(C)c1cc(C(F)(F)F)cc(-c2ccc(C(=O)O)cc2)n1 | -6.98%
13 | O=C(O)c1cnc(OCC2CC2)c(Br)c1 | -4.12%
14 | O=C(O)c1cc(Br)cnc1OCC1CC1 | 2.88%
15 | O=C(NC1CC1)c1cc(C(F)(F)F)cc(C(F)(F)F)n1 | -9.57%
16 | OCc1cn(Cc2cccc(C(F)(F)F)c2)nn1 | -9.88%
17 | COC(=O)c1c(C(F)(F)F)cnc(OC)c1Cl | -11.7%
18 | CC(O)c1cn(Cc2ccccc2)nn1 (stereo unspecified) | -6.51%
19 | COc1ccc(Cn2cc(C(C)O)nn2)cc1 (stereo unspecified) | 20.2%
20 | OC1(CNc2cccc(F)c2)CCNCC1 | -3.17%
21 | Cc1ccc(C(=O)CC(SC2CCCCC2)C(=O)O)cc1 (stereo unspecified) | -2.59%
22 | COC(=O)c1ccc(C)c(N2CCNC2=O)c1 | -2.21%
23 | COC(=O)CN1CCC(C(F)(F)F)CC1 | -2.55%
24 | O=C(CN1CCOCC1)Nc1cc(C(F)(F)F)ccc1-n1cccc1 | -3.59%
25 | Cn1c(CN2CCCc3cc(F)cc(F)c32)cc(=O)n(C)c1=O | -4.68%

Row | SMILES | cytotoxicity at 70.5 h
26 | Cc1ccc(F)c(S(=O)(=O)N2CCCC2c2ccncc2)c1 (stereo unspecified) | -1.25%
27 | CNC(=O)c1ccc(CN(C)C(=O)Nc2nnc(C(C)C)s2)cc1 | 2.68%
28 | Cc1ccc(S(=O)(=O)N2CCN(CCCO)CC2)s1 | -2.4%
29 | COc1ccc(-n2cnc(Cl)c2CO)cc1 | -2.44%
30 | COc1ccc(-c2nc(CCNCc3ccncc3)co2)cc1 | 1.89%
31 | Cn1cc(C2CCCN2C(=O)c2cnc(-c3ncccn3)s2)cn1 (stereo unspecified) | -1.78%
32 | N#CC(NC(=O)CCCOc1cccnc1)c1ccc(F)cc1F (stereo unspecified) | 6.82%
33 | CN(C(=O)CSc1ncc[nH]1)C1CC1 | -3.27%
34 | Cc1ccc2c(c1)N(C(=O)c1cc[nH]c(=O)c1)CC(C)O2 (stereo unspecified) | -1.21%
35 | CCN(CC1CC1)C(=O)NCc1nnc2n1CCC2 | 1.57%
36 | Cc1ccc2c(c1)N(C(=O)c1c[nH]c(C)cc1=O)CC(C)O2 (stereo unspecified) | 28.6%
37 | Cc1ccc(F)cc1C(=O)N1CCOCC12CCCC2 | -5.21%
38 | Cc1cc(C(=O)Nc2ccc3c(c2)N(C)CCN(C)C3)on1 | -5.18%
39 | COc1c(CNCCc2c[nH]c3cc(F)ccc23)c(C(C)C)nn1C | 4.03%
40 | CCc1ccc(C(=O)Nc2ccc3c(c2)N(C)CCN(C)C3)o1 | -8.89%
41 | CCc1nnsc1C(=O)NCc1nnc2n1CCCCC2 | -3.94%
42 | CCc1nnsc1C(=O)NCc1nnc2n1CCC2 | -2.79%
43 | Cc1cc(C)n(Cc2ccc(C(=O)N3CCOCC3(C)C)cc2)n1 | 12.1%
44 | CCC(=O)Nc1ccc(N2CCC(OC)CC2)c(C(F)(F)F)c1 | -4.77%
45 | Brc1cccc(-c2noc(C3COCCO3)n2)c1 (stereo unspecified) | -9.75%
46 | COc1ccc(C(=O)N2CCOc3ccncc32)cc1 | -1.92%
47 | CCc1cc2c(N3CCCC(c4ccn[nH]4)C3)ncnc2s1 (stereo unspecified) | 2.73%
48 | CCc1nc(CS(=O)(=O)Cc2noc(C3CC3)n2)cs1 | -1.78%
49 | C[S+]([O-])CCNC(=O)N1CCSC2(CCCCC2)C1 (stereo unspecified) | -3.78%
50 | O=C(Cc1ccon1)N1CCc2cc(Br)sc2C1 | -3.84%

Row | SMILES | cytotoxicity at 70.5 h
51 | O=C(NCC(O)CO)Nc1cc(Br)ccc1F (stereo unspecified) | -1.48%
52 | COc1ccc(C(C)NCc2ccsc2)cc1Cn1cccn1 (stereo unspecified) | -3.16%
53 | CN1CCOC(CNCC(=O)NCCc2ccc3c(c2)OCCO3)C1 (stereo unspecified) | 4.64%
54 | CC(C)c1nn(C)cc1CNCc1cccc(N(C)C)c1 | 6.7%
55 | CCc1ccc(C(=O)NC[C@H]2CCCN2C(=O)c2ccc(CC)o2)o1 | 2.7%
56 | CCN(Cc1ccc(N(C)C)cc1)S(=O)(=O)c1cc(Br)ccc1OC | -1.59%
57 | CCOc1ccc(Br)cc1S(=O)(=O)N(CC)Cc1ccc(N(C)C)cc1 | -3.07%
58 | Cc1cc(NC(=O)C2CCN(c3nnc(C)c(C)c3C#N)CC2)no1 | 0.58%
59 | COc1cc(CNC(=O)COC2CCCC2)ccc1O | -4.4%
60 | Cc1cc(NC(=O)NCCC(=O)N2CCCc3ccccc32)no1 | -6.7%
61 | CCN(CC)S(=O)(=O)NC1CCN(c2ccc(OC)cc2)CC1 | -3.82%
62 | COc1ccc(N2CCC(NS(=O)(=O)N(C)C(C)C)CC2)cc1 | 7.03%
63 | CCN(CCNC(=O)Nc1nnc(C)s1)C(=O)OC(C)(C)C | -5.88%
64 | Cc1nc(CN2CCN(S(=O)(=O)N3CCCCC3)CC2)oc1C | -4.75%
65 | COCCN(C)C(=O)NCCc1coc(-c2ccc(C)cc2)n1 | 7.28%
66 | Cc1ccc(N2CCCN(C(=O)CCc3ccsc3)CC2)nn1 | -6.07%
67 | CN1CCCC(CNC(=O)CN(C)S(=O)(=O)c2cccnc2)C1 (stereo unspecified) | 6.09%
68 | Cc1noc(C)c1CNC(=O)NCCC(=O)N1CCCc2ccccc21 | 3.77%
69 | CC(C)N(C(=O)Cn1cc(Cl)cn1)c1ccccc1 | -4.68%
70 | CN1CCN(CCOc2ccc(NC(=O)c3cnc[nH]3)cc2)CC1 | 6.08%
71 | CN1CCN(CCOc2ccc(NC(=O)c3ccoc3)cc2)CC1 | -4.12%
72 | Cc1cc(CNC(=O)NCCC(=O)N2CCCc3ccccc32)no1 | 7.7%
73 | CCC(C(=O)NCCc1coc(-c2ccc(C)cc2)n1)N(C)C (stereo unspecified) | 3.11%
74 | Cc1nc(CN2CCN(S(=O)(=O)N3CCOCC3)CC2)oc1C | -3.19%
75 | OCCN1CCC(CNCc2cn(-c3ccccc3)nn2)CC1 | -12.5%

Row | SMILES | cytotoxicity at 70.5 h
76 | COCCCn1ccc(NC2CCOCC2)n1 | -7.45%
77 | CN(CC(=O)NCCC#N)C(c1ccccc1)c1ccccc1 | -14.5%
78 | O=C(c1sccc1Br)N1CCOCC1 | -15.9%
79 | CN(CC(N)=O)Cc1cc(Cl)cc2cccnc12 | -8.6%
80 | CN(Cc1nc2ccccc2[nH]1)C(=O)C(C)(C)n1cc(Cl)cn1 | -12.7%
81 | CC(O)CN1CCC(CNCc2cn(-c3ccccc3)nn2)CC1 (stereo unspecified) | -9.21%
82 | CC(C)(C(=O)NCCCc1nc2ccccc2[nH]1)n1cc(Cl)cn1 | -5.61%
83 | CS(=O)(=O)NCCNC(=O)c1ccc(OCc2ccccc2)nc1 | -9.1%
84 | CCC(C)(C)NC(=O)c1ccc(NC(=O)NCc2cc(C)no2)cc1 | -0.597%
85 | Cn1ncc2c(=O)[nH]c(N3CCCC3c3cccs3)nc21 (stereo unspecified) | 17.2%
86 | c1ccc(-c2nc(SCc3nnc(C4CC4)o3)n[nH]2)nc1 | -4.88%
87 | CCc1noc(CSc2n[nH]c(-c3ccccn3)n2)n1 | -3.21%
88 | N#CC1COCCN1S(=O)(=O)c1ccc2c(c1)CCC2 (stereo unspecified) | -8.31%
89 | CN(C)CCn1cc(NC(=O)NC(C)(C)c2nccs2)cn1 | -3.3%
90 | CCc1nc(CC)n(CC(=O)N(C)CC(F)(F)F)n1 | -4.55%
91 | CC(NC(=O)NCC(C)(C)O)c1ccc(-c2cncnc2)cc1 (stereo unspecified) | 19.1%
92 | CC(NC(=O)NCC(C)(C)O)c1ccc(-c2ccncc2)cc1 (stereo unspecified) | -1.45%
93 | CC(C)Sc1ccc(N2CCN(Cc3ccccn3)CC2)nn1 | -12.7%
94 | COc1ncnc(N(C)C)c1NC(=O)c1cscc1C | -9.9%
95 | CC(C)CCN(c1cn[nH]c1)S(=O)(=O)c1cccc(C#N)c1 | 18.2%
96 | Cc1ccc(C(C)NCCc2nccn2Cc2ccccc2)o1 (stereo unspecified) | -10.1%
97 | Cc1nc(CN(C)C2CCN(CC(=O)N(C)CCC#N)C2)no1 (stereo unspecified) | 0.0577%
98 | O=C1CCCN1CCN1CCCCC1Cn1cncn1 (stereo unspecified) | 17.7%
99 | CCc1c(NCc2ccc(F)cc2)cnn1CC(C)C | -6.17%
100 | COc1ccc(-c2nnc(C(C)N3CCOCC3)o2)cc1 (stereo unspecified) | -2.92%

Row | SMILES | cytotoxicity at 70.5 h
101 | N#Cc1ccnc(N2CCN(C3CCOC3=O)CC2)c1 (stereo unspecified) | 14.2%
102 | CCOc1ccc(Cl)c(C(=O)NC(Cc2ccccc2)C(N)=O)n1 (stereo unspecified) | -1.23%
103 | COc1ccc(-c2nnc(C(C)N3CCOC(C)(C)C3)o2)cc1 (stereo unspecified) | -5.79%
104 | CCc1ccsc1C(=O)NC(Cc1ccccc1)C(N)=O (stereo unspecified) | -6.72%
105 | Cc1cc(S(C)(=O)=O)c(C)c(S(=O)(=O)NCC2CCC2)c1 | -9.88%
106 | Cc1cc(NC(=O)N2CCN(C)CC2C)n(Cc2ccccc2)n1 (stereo unspecified) | -9.75%
107 | COc1ccccc1NCC(=O)NCc1scnc1C | 13.6%
108 | Cc1cc(NC(=O)N(C)CCN2CCN(c3ccccc3)CC2)on1 | -2.89%
109 | Cc1cc(NC(=O)NC(C)CN2CCN(c3ccccc3)CC2)on1 (stereo unspecified) | -5.02%
110 | COCC1CN(c2ccc(Cl)cc2C#N)CCO1 (stereo unspecified) | -7.05%
111 | NC(=O)c1ccc(N2CCN(Cc3ccc(F)cc3Cl)CC2)nn1 | -9.22%
112 | COC(=O)c1cccc(CNC(=O)CCC(F)(F)F)c1 | -3.83%
113 | COc1cc(CNCCC(N)=O)c2c(c1)CC(C)O2 (stereo unspecified) | -0.966%
114 | N#Cc1cccn(CCOc2ccc(Cl)cc2)c1=O | -1.43%
115 | COCC1CN(c2ccc(C#N)c(Cl)c2)CCO1 (stereo unspecified) | 21.2%
116 | COc1cc(CNCCn2cc(C)cn2)c2c(c1)CC(C)O2 (stereo unspecified) | -8.44%
117 | COc1cc(CNCCn2cccn2)c2c(c1)CC(C)O2 (stereo unspecified) | 7.89%
118 | Cc1n[nH]cc1CNCc1cccc(OCC(F)(F)F)c1 | -0.995%
119 | Cc1n[nH]cc1CNCc1ccnc(OCC(F)(F)F)c1 | -7.14%
120 | CC(C)c1nc(-c2ccnc(N3CCNCC3)n2)no1 | -7.09%
121 | Cc1nc(-c2ccnc(N3CCNCC3)n2)no1 | -1.44%
